Data on 1 compound can be found in US10711041B2, “Lyophilisate containing a cyclic peptide of formula X1-[sequence]-X2” (priority 2013, dated 2020).

Data set [1] can be described thus: Breathing simulator, amount of aerosol available for inhalation. The format is physicochemical. The settings on record: nebulizers Type A and Type B. The protocol: It is ramblingly known, that in practice from a generated aerosol only a part is available for the patient. Thus, for determining the amount of aerosol which is available for a user, trials with a breathing simulator were carried out. For investigating the particle size and for the implementation of the breathing simulation an aerosol from an aqueous solution of the cyclic peptide of amino acid sequence SEQ ID NO:1 was used. For generating aerosol different nebulizer types were used. The nebulizers A and B were so called “Mesh-Type nebulizers”.

Data set [2] is described as follows: Chemical stability of condensed aerosol by reverse HPLC/MS. The note with it: Mesh-Type nebulizer, aerosol condensed in cooling trap. The format is physicochemical. On the procedure:
Since proteins and peptides occasionally may be rather unstable, it was investigated, whether the cyclic peptides of amino acid sequence SEQ ID NO:1 to SEQ ID NO:6 in dissolved preparation during conversion into an aerosol remain stable. For that the cyclic peptides were dissolved in water as described in example 4. After filling into the storage container of a nebulizer the aqueous solution of the cyclic peptides were converted into an aerosol. For that a “Mesh-Type” nebulizer was used. The biological activity of the collected aerosols was determined by means of the Patch Clamp method. Thereby macroscopic currents of A549 cells were deduced in the “whole cell” configuration of the “Patch-clamp” technique, as described under “Electrophysiological Investigations of the Amilorid-sensitive Sodium Ion Channel (ENaC)”.
The chemical stability of the condensed aerosols was determined by means of reverse HPLC/MS.

On to `C[C@@H]1NC(=O)CNC(=O)[C@H](CCC(=O)O)NC(=O)[C@@H]2CCCN2C(=O)[C@H]([C@@H](C)O)NC(=O)[C@H](CCC(=O)O)NC(=O)[C@H](CCCNC(=N)N)NC(=O)[C@H](CCC(N)=O)NC(=O)CNC(=O)[C@@H](N)CSSC[C@@H](C(=O)O)NC(=O)[C@H](Cc2ccc(O)cc2)NC(=O)[C@H](Cc2c[nH]c3ccccc23)NC(=O)[C@@H]2CCCN2C(=O)[C@H](CCCCN)NC(=O)[C@H](C)NC(=O)[C@H](CCC(=O)O)NC1=O` [SEQ ID NO: 1], for which, in data set [1], the “part of the aerosol available for inhalation (inhalation filter)” value is “predominant part”. Besides, in data set [2], the “chemical stability during transformation into an aerosol” value is “keeps its biological, as well as its chemical stability”.
